Key:
Assay type in all cases: cell-based
RS4;11 cells = assay: Cell proliferation assay, RS4;11 cells (MTS, 72 h); conditions: Homo sapiens, RS4;11 cell proliferation
Procedure: MTS testing kit was purchased from Promega. The RPMI-1640, Fetal bovine serum and Penicillin-Streptomycin were purchased from Gibco. Dimethyl sulfoxide (DMSO) was purchased from Sigma.
To investigate whether a compound is able to inhibit the activity of Bcl-2 in cells, a mechanism-based assay using RS4;11 (ATCC® CRL-1873™) cell was developed. In this assay, inhibition of Bcl-2 was detected by the inhibition of RS4;11 cells proliferation. RS4;11 cells were cultured in culture flasks to 40-80% confluence in RPMI-1640 plus 10% fetal bovine serum. Cells were collected and plated onto 96-well plates at desired cell density (30000 cells/well). Plates were incubated overnight at 37° C., with 5% CO2 to adhere. Compounds were added to the plates, and the final compound concentrations were 10000, 3333, 1111, […], 41, 14, 4.6 and 1.5 nM. Plates plated with RS4;11 cells were placed at 37° C., with 5% CO2 for 72 h. 20 μl MTS/100 μl medium mixture solution were added to each well and incubate the plates for exactly 2 hours. The reaction was stopped by adding 25 μl 10% SDS per well. Measure absorbance at 490 nm and 650 nm (reference wavelength). IC50 was calculated using GraphPad Prism 5.0.

RS4;11-BCL-2 G101V cells = assay: Cell proliferation assay, engineered RS4;11 cells stably overexpressing BCL-2 G101V (MTS, 168 h); conditions: Homo sapiens, RS4-11, 168 h, read-out: RS4, 11 BCL2- G101V
Summary of the method: (§1)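 Proliferation read-out: MTS for exactly 2 h, then absorbance at 490 nm, with IC50 derived from the fit. Before this, engineered RS4;11 lines (BCL-2 G101V, F104L; 5000 cells/well) were exposed 168 h at 37 °C to serially diluted compound, final 1.4–10000 nM.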

RS4;11-BCL-2 F104L cells = assay: Cell proliferation assay, engineered RS4;11 cells stably overexpressing BCL-2 F104L (MTS, 168 h); conditions: Homo sapiens, read-out: RS4, 11 BCL2-F104L
Summary of the method: as §1

Toledo cells = assay: Cell proliferation assay, Toledo cells (MTS, 72 h); conditions: Homo sapiens, Toledo cells, MTS, read-out: Toledo IC50
Summary of the method: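 Toledo cells (30000/well, RPMI-1640 with 10% FBS) were preincubated for 4 h. They were then exposed to nine compound concentrations from 10000 to 1.5 nM for 72 h at 37 °C, 5% CO2. MTS was added for 2 h and absorbance read at 490 nm to give IC50.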

IC50 (RS4;11 cells) [nM] | IC50 (RS4;11-BCL-2 G101V cells) [nM] | IC50 (RS4;11-BCL-2 F104L cells) [nM] | Compound | IC50 (Toledo cells) [nM]
≤ 1 | – | – | CC(C)c1ccccc1[C@@H]1CCCN1C1CC2(CCN(c3ccc(C(=O)NS(=O)(=O)c4cnc(NCC5CCC(C)(O)CC5)c([N+](=O)[O-])c4)c(Oc4cnc5[nH]ccc5c4)c3)CC2)C1 (some centres unmarked) [Example A-6a, (5)-2-((1H-pyrrolo[2,3-b]pyridin-5-yl)oxy)-N-((6-(((4-hydroxy-4-methylcyclohexyl)methyl)amino)-5-nitropyridin-3-yl)sulfonyl)-4-(2-(2-(2-isopropylphenyl)pyrrolidin-1-yl)-7-azaspiro[3.5]nonan-7-yl) benzamide] | –
≤ 1 | – | – | CCc1ccccc1[C@@H]1CCCN1C1CC2(CCN(c3ccc(C(=O)NS(=O)(=O)c4cnc(NCC5CCC(C)(O)CC5)c([N+](=O)[O-])c4)c(Oc4cnc5[nH]ccc5c4)c3)CC2)C1 (stereo partly drawn) [Example A-8a, (S)-2-((1H-pyrrolo[2,3-b]pyridin-5-yl)oxy)-4-(2-(2-(2-ethylphenyl)pyrrolidin-1-yl)-7-azaspiro[3.5]nonan-7-yl)-N-((6-(((4-hydroxy-4-methylcyclohexyl)methyl)amino)-5-nitropyridin-3-yl)sulfonyl) benzamide] | –
– | 40 | 9 | COc1nc2[nH]cc(F)c2cc1Oc1cc(N2CCC3(CC2)CN([C@H]2CCC[C@H]2c2ccccc2C(C)C)C3)ccc1C(=O)NS(=O)(=O)c1cnc(NC[C@H]2CC[C@](C)(O)CC2)c([N+](=O)[O-])c1 (single isomer, unassigned) [Example A-152, 2-((3-fluoro-6-methoxy-1H-pyrrolo [2,3-b]pyridin-5-yl)oxy)-N-((6-(((1r, 4r)-4-hydroxy-4-methylcyclohexyl)methyl)amino)-5-nitropyridin-3-yl) sulfonyl)-4-(2-((1S,2S or 1R,2R)-2-(2-isopropylphenyl)cyclo-pentyl)-2,7-diazaspiro[3.5]nonan-7-yl) benzamide] | 1
≤ 1 | – | – | CS(C)(=O)=NC1CCC(CNc2ncc(S(=O)(=O)NC(=O)c3ccc(N4CCC5(CC4)CC(N4CCC[C@@H]4c4ccccc4C4CC4)C5)cc3Oc3cnc4[nH]ccc4c3)cc2[N+](=O)[O-])CC1 (single isomer, unassigned) [Example A-9b, (R or S)-2-((1H-pyrrolo[2,3-b]pyridin-5-yl)oxy)-4-(2-(2-(2-cyclopropyl-phenyl)pyrrolidin-1-yl)-7-azaspiro [3.5]nonan-7-yl)-N-((6-(((4-((dimethyl(oxo)-λ^6-sulfanylidene)amino)cyclohexyl)methyl)amino)-5-nitropyridin-3-yl)sulfonyl)benzamide] | –
– | 6 | 1 | CC(C)c1ccccc1[C@@H]1CCCN1C1CC2(CCN(c3ccc(C(=O)NS(=O)(=O)c4cc5c(c([N+](=O)[O-])c4)N[C@@H]([C@H]4CC[C@](C)(O)CC4)CO5)c(Oc4cc5cc[nH]c5nc4OC[C@@H]4COCCO4)c3)CC2)C1 (single isomer, unassigned) [Example D-251, 2-((6-(((S)-1,4-dioxan-2-yl)methoxy)-1H-pyrrolo[2,3-b]pyridin-5-yl)oxy)-N-(((S)-3-((1r,4S)-4-hydroxy-4-methylcyclohexyl)-5-nitro-3,4-dihydro-2H-benzo[b][1,4]oxazin-7-yl)sulfonyl)-4-(2-((R or S)-2-(2-isopropylphenyl)pyrrolidin-1-yl)-7-azaspiro[3.5]nonan-7-yl)benzamide] | 1

The remaining lines, values behind:

Compound | IC50 (RS4;11 cells) [nM] | IC50 (RS4;11-BCL-2 G101V cells) [nM] | IC50 (RS4;11-BCL-2 F104L cells) [nM] | IC50 (Toledo cells) [nM]
O=C(NS(=O)(=O)c1cnc(NCC2C3COCC23)c([N+](=O)[O-])c1)c1ccc(N2CCC3(CC2)CC(N2CCC[C@H]2c2ccccc2C2CC2)C3)cc1Oc1cnc2[nH]ccc2c1 (some centres unmarked) [Example A-30a, 2-((1H-pyrrolo[2,3-b]pyridin-5-yl)oxy)-N-((6-(((3-oxabicyclo[3.1.0]hexan-6-yl)methyl)amino)-5-nitro-pyridin-3-yl)sulfonyl)-4-(2-((5)-2-(2-cyclopropylphenyl)pyrrolidin-1-yl)-7-azaspiro[3.5]nonan-7-yl) benzamide] | ≤ 1 | – | – | –
CCOc1nc2[nH]cc(F)c2cc1Oc1cc(N2CCC3(CC2)CN([C@H]2CCC[C@H]2c2ccccc2C(C)C)C3)ccc1C(=O)NS(=O)(=O)c1cnc(NC[C@H]2CC[C@](C)(O)CC2)c([N+](=O)[O-])c1 (relative stereo) [Example A-153, 2-((6-ethoxy-3-fluoro-1H-pyrrolo[2,3-b]pyridin-5-yl)oxy)-N-((6-(((1r,4r)-4-hydroxy-4-methylcyclohexyl)methyl)amino)-5-nitropyridin-3-yl) sulfonyl)-4-(2-((1S,2S or 1R,2R)-2-(2-isopropylphenyl)cyclo-pentyl)-2,7-diazaspiro[3.5]nonan-7-yl) benzamide] | – | 25 | 6 | 1
CC(C)c1ccccc1[C@@H]1CCCN1C1CC2(CCN(c3ccc(C(=O)NS(=O)(=O)c4cc5c(c([N+](=O)[O-])c4)N[C@@H]([C@H]4CC[C@](C)(O)CC4)CO5)c(Oc4cc5cc[nH]c5nc4OC[C@H]4COCCN4)c3)CC2)C1 (single isomer, unassigned) [Example D-216, N-(((S)-3-((1r,4S)-4-hydroxy-4-methylcyclohexyl)-5-nitro-3,4-dihydro-2H-benzo[b][1,4]oxazin-7-yl)sulfonyl)-4-(2-((R or S)-2-(2-isopropylphenyl)pyrrolidin-1-yl)-7-azaspiro[3.5]nonan-7-yl)-2-((6-(((R)-morpholin-3-yl)methoxy)-1H-pyrrolo[2,3-b]pyridin-5-yl)oxy)benzamide] | – | 1 | 1 | 1
O=C(NS(=O)(=O)c1cnc(NCC2CCSCC2)c([N+](=O)[O-])c1)c1ccc(N2CCC3(CC2)CC(N2CCOC[C@H]2c2ccccc2C2CC2)C3)cc1Oc1cnc2[nH]ccc2c1 (single isomer, unassigned) [Example A-98, (R or S)-2-((1H-pyrrolo[2,3-b]pyridin-5-yl)oxy)-4-(2-(3-(2-cyclopropyl-phenyl)morpholino)-7-azaspiro[3.5]nonan-7-yl)-N-((5-nitro-6-(((tetra-hydro-2H-thiopyran-4-yl)methyl)amino)pyridin-3-yl)sulfonyl) benzamide] | ≤ 1 | – | – | –
COCCOc1nc2[nH]cc(F)c2cc1Oc1cc(N2CCC3(CC2)CN([C@H]2CCC[C@H]2c2ccccc2C(C)C)C3)ccc1C(=O)NS(=O)(=O)c1cc2c(c([N+](=O)[O-])c1)N[C@@H]([C@H]1CC[C@](C)(O)CC1)CO2 (single isomer, unassigned) [Example D-95, 2-((3-fluoro-6-(2-methoxyethoxy)-1H-pyrrolo[2,3-b]pyridin-5-yl)oxy)-N-(((S)-3-((1r,4S)-4-hydroxy-4-methylcyclohexyl)-5-nitro-3,4-dihydro-2H-benzo[b][1,4]oxazin-7-yl)sulfonyl)-4-(2-((1S,2S or 1R,2R)-2-(2-isopropylphenyl)cyclopentyl)-2,7-diazaspiro[3.5]nonan-7-yl)benzamide] | – | 3 | 8 | 1
CC(C)c1ccccc1[C@@H]1CCCN1C1CC2(CCN(c3ccc(C(=O)NS(=O)(=O)c4cc5c(c([N+](=O)[O-])c4)N[C@@H]([C@H]4CC[C@](C)(O)CC4)CO5)c(Oc4cc5cc[nH]c5nc4O[C@@H]4CCN(C)C4)c3)CC2)C1 (single isomer, unassigned) [Example D-223, N-(((S)-3-((1r,4S)-4-hydroxy-4-methylcyclohexyl)-5-nitro-3,4-dihydro-2H-benzo[b][1,4]oxazin-7-yl)sulfonyl)-4-(2-((R or S)-2-(2-isopropylphenyl)pyrrolidin-1-yl)-7-azaspiro[3.5]nonan-7-yl)-2-((6-(((R)-1-methylpyrrolidin-3-yl)oxy)-1H-pyrrolo[2,3-b]pyridin-5-yl)oxy)benzamide] | – | 1 | 1 | 1
COCCOc1nc2[nH]ccc2cc1Oc1cc(N2CCC3(CC2)CC(N2CCC[C@H]2c2ccccc2C(C)C)C3)ccc1C(=O)NS(=O)(=O)c1cc2c(c([N+](=O)[O-])c1)N[C@@H]([C@H]1CC[C@](C)(O)CC1)CO2 (single isomer, unassigned) [Example D-17, N-(((S)-3-((1r,4S)-4-hydroxy-4-methylcyclohexyl)-5-nitro-3,4-dihydro-2H-benzo[b][1,4]oxazin-7-yl)sulfonyl)-4-(2-((R or S)-2-(2-isopropylphenyl)pyrrolidin-1-yl)-7-azaspiro[3.5]nonan-7-yl)-2-((6-(2-methoxyethoxy)-1H-pyrrolo[2,3-b]pyridin-5-yl)oxy) benzamide] | – | 1 | 22 | 1

Reference: patent publication US20230159527A1, “COMPOUNDS AS BCL-2 INHIBITORS” (Fochon Pharmaceuticals, Ltd., priority 2020, published 2023)
